Assay results reported in PMC10395789, “Impacts of some metal ions on glutathione s-transferase in the liver of Chalcalburnus tarichi: an endemic species of Lake Van” (Turkish Journal of Chemistry, 2022).
“And” between values parts separate entries of the source, which are not always exact repeats. Identical values can stand only once.

Experiments:
[1] = test system: C. tarichi Pallas liver GST; test: In vitro inhibition effect of metals on GST enzyme activity; assay type: biochemical, Chalcalburnus tarichi Pallas; conditions: for Inhibition type / Ki: GSH substrate, Lineweaver–Burk plots; for IC50: purified liver GST, from Activity (%)–[metal ion] plots; for Ki: three metal concentrations, mean ± standard error of the mean
Description: C. tarichi Pallas fish were obtained from Van Lake basin. The liver samples of C. tarichi Pallas were immediately removed and preserved for experimental studies according to the cold chain principles. The livers were sliced into small pieces and successfully lysed by a homogenizer in 50 mM Tris/HCl buffer (pH 7.2) containing 1 mM DTT, 1 mM PMSF and 1 mM EDTA. Homogenate was centrifuged twice at 4 °C and 20,000 × g for 60 min. The supernatant was used in subsequent analyses. For GST purification, we followed the procedure described in our previous study.
(§1) GST activity was measured with the method in our previous study using CDNB as the model substrate.
IC50 was defined as the concentration of the compound causing 50% inhibition, and it was calculated based on Activity (%)–[metal ion] plots for each metal. The Ki values and inhibition types were found using Lineweaver–Burk plots. For the Ki study, we selected 3 inhibitor concentrations and made activity measurements relative to the control values, and then we calculated 1 / S and 1 / V values and plotted Ki plots. Analysis of the data and drawing of graphs were realized using GraphPad Prism ver. 8 for Mac (GraphPad Software, La Jolla California USA). […] Differences between data sets were considered statistically significant when the p-value was less than 0.05.

[2] = test system: GST from Lake Van fish gills; parameters: method as in PMID 25856719; conditions: Lake Van fish gill GST; cited from earlier work
[3] = test system: GST from muscle tissue; parameters: method as in Aksoy et al. 15; conditions: ref Aksoy et al. 15; cited from earlier work
[4] = test system: GST from turkey livers; parameters: method as in PMID 22989768; conditions: turkey liver GST; cited from earlier work
[5] = test system: GST in the liver of Bonito; parameters: method as in Güller et al. 43; conditions: ref Güller et al. 43; cited from earlier work
[6] = test system: C. tarichi Pallas liver GST; test: Kinetic analysis (Km, Vmax, Lineweaver–Burk plot) of liver GST with GSH and CDNB as cosubstrates; assay type: biochemical, Chalcalburnus tarichi Pallas; conditions: substrate of liver GST
Description: as §1
Bradford procedure was used for protein quantity. The optimal pH and ionic strength were determined based on the activity of the pure enzyme described in a previous study. The effects of temperature on GST activity were made spectrophotometrically at temperatures ranging from 0 to 80 °C as described in a previous study. Stable pH ranges were 5.5–8.0 and 7.0–9.0. The enzyme solution was mixed with the buffers at the corresponding pH values. The activities were assayed at every 24 h for 4 days. Different concentrations of GSH and CDNB were used as substrates to determine the Vmax and Km values of the GST enzyme. Vmax and Km values were determined based on the Lineweaver–Burk plot.

| SMILES | Inhibition type [1] | IC50 [1] [µM] | Effect on GST enzyme activity [5] | further results |
| --- | --- | --- | --- | --- |
| [Ag+] [Ag^+] | Noncompetitive | 0.21 | showed inhibitory effects | Inhibitory effect among the studied metal ions ([1]; compared with Cu2+, Cd2+, Co2+): best inhibitory effect; Inhibitory effect among the studied metal ions [2]: best inhibitory effect; Inhibitory effect among all studied metal ions [3]: best inhibitor; Inhibitory effect on enzyme activity [4]: potent inhibitory effect |
| O=[N+]([O-])c1ccc(Cl)c([N+](=O)[O-])c1 [CDNB] |  |  |  | Km [6]: 890 µM; Vmax [6]: 1.245 EU/mL and 1.25 EU/mL |
| [Cd+2] [Cd^2+] | Competitive | 235 | showed inhibitory effects | Ki [1]: 117 ± 31 µM |
| [Co+2] [Co^2+] | Competitive | 446 |  |  |
| [Cr+2] [Cr^2+] |  |  | did not show any impact |  |
| [Cu+2] [Cu^2+] | Competitive | 163 | showed inhibitory effects | Ki [1]: 49 ± 9 µM |
| [Fe+3] [Fe^3+] |  |  | did not show any impact |  |
| N[C@@H](CCC(=O)N[C@@H](CS)C(=O)NCC(=O)O)C(=O)O [GSH] |  |  |  | Km [6]: 60 µM; Vmax [6]: 0.562 EU/mL and 0.56 EU/mL |
| [Pb+2] [Pb^2+] |  |  | did not show any impact |  |
| [Zn+2] [Zn^2+] |  |  | showed inhibitory effects |  |
